Data published in US5985273A, “Biological control of insects” (priority 1994, dated 1999).
Values after ≈ are worked out from the molar mass of the structure shown. Starred links: 1 amine or outer side, 2 acyl side, 3 side chain; linkers in the order of their positions; H or OH if unused. Non-standard residues stand in square brackets, D forms with d. Residues, ends and D or L forms follow the SMILES beside them. *: point of attachment. Sta = CC(C)C[C@H](N)[C@@H](O)CC(=O)O; Isovaleryl = CC(C)CC(=O)*; Nle = CCCC[C@H](N)C(=O)O; CO = O=C([*:1])[*:2]

Tests used:
[1] = test system: O. surinamensis larvae; test: Weight reduction of Oryzaephylus surinamensis larvae in treated flour; type: in vivo
Description: Insects were cultured in cleaned, ground and sieved wholemeal flour made from organic wheat. Inhibitors from bottles of pre-weighed material were dry-mixed with the flour and residual inhibitor rinsed from bottles with a small volume of water. Rinse water was added to the flour and the mixture re-ground. The impregnated flour was transferred to a 20 mL vial and mixed thoroughly by shaking and inverting.
Adults of T. castaneum were allowed to oviposit on flour, eggs were sifted from the flour and transferred one by one with a single hair to microwell tubes containing a small amount of flour. Each level of treatment was performed in triplicated using 32 wells/replicate. Assays were performed in triplicated. Cultures were incubated at 30° C. and 55% R H.
The bioassay for this insect was outlined for T. castaneum, except incubations were conducted at 32.5° C. and 70% R H. After 8 days the insects were sieved from the flour and weighed.

[2] = test system: Lucilia cuprina larvae; test: Growth and survival of first instar sheep blowfly larvae on culture medium with inhibitor; type: in vivo; details: for Effect on larval growth, summary in words: Example 1, Table 1.2
[3] = test system: Ctenocephalides felis; test: Development of cat flea eggs in dried blood diets; type: in vivo; details: Day 16
Description: Blood was collected from the jugular vein of a five year old merino sheep that had not been treated with an ectoparasitic agent for 18 months. The blood was collected into a 100 ml plastic bottle containing 0.8 ml of heparin and was maintained at 4° C. Inhibitors were pre-weighed into sterile 5 ml plastic vials and 4.5 ml of blood added. The samples were mixed, placed at -70° C. for 24 hours, then freeze-dried. The freeze-dried samples were sieved through a stainless steel 63 micron sieve, and placed into sterile 5 ml plastic vials (0.15 g/per tube). Four flea eggs were placed into each vial, and a sheet of tissue paper fastened by an elastic band was fitted to the top of each vial. The vials were incubated at 25° C. and 70-80% R H for 6 days. Vermiculite was then added to each vial to provide a supporting medium for the fleas to pupate and the tubes incubated at 25° C. and 70-80% R H, for a further 10 days. Ten control vials and three vials of each treatment were tested.
At the conclusion of the incubation period the vials were placed at -20° C. for 24 hours to kill the fleas. The number of eggs hatched and the life-cycle state was recorded.

[4] = test system: Heliothis punctigens larvae; test: Growth and survival of cotton budworm larvae fed an artificial diet; type: in vivo; details: for % Alive / Average Laval Weight: 10 days; for % Alive: control 70.0; for Average Laval Weight: control 165.4
Description: 1. The Haricot beans were cooked in a microwave for 40 minutes. 2. Agar was added to the hot water and stirred on a hot plate until almost boiling. 3. The haricot beans, agar mix, yeast and wheat germ was blended in an electric mixer for 3 minutes. 4. When the temperature has dropped to 60°C., the acids were added and mixed with the media. […] Inhibitor solutions or an equal volume of water were placed into sterilized glass tubes at designated concentrations. The artificial media was added to each tube (1.5 ml) using a sterile 10 ml syringe. First instar Heliothis punctigens larvae (1 larvae per tube) were added to the glass tubes and the tubes were capped. The tubes were incubated for 10 days at 25° C. The larvae were killed by placing the glass tubes at -70° C. for 24 hours, and then individually weighed. Percentage inhibition was calculated by comparison to control larvae.

[5] = test system: Colorado potato beetle larvae; details: cited from earlier work
[6] = test system: Teleogryllus commodus; test: Mortality of black field cricket nymphs on treated cabbage leaf disks; type: in vivo; details: after 7 days
Description: (i) Stock solutions of inhibitors and control solutions were prepared as aqueous solutions or suspensions as outlined in Table 6.1.
(ii) Mortality was assessed by commencing the study with 1st instar nymphs.
(iii) Cabbage leaf disks (5×8 mm diameter disks/treatment) were smeared with 100 μl of inhibitor or control stock solutions and allowed to dry. Disks were placed singly in 40 mm petri dishes, together with a moist cotton wool pas as water supply and a piece of fluted plastic for shelter.
(iv) Ten nymphs were placed on each disc and the dishes incubated at 25° C.
(v) Mortality was assessed daily and any dead individuals removed.

[7] = test system: Bovicola ovis (Hartley strain); details: cited from earlier work
[8] = Lucilia cuprina, first instar larvae, 2 mM
[9] = first instar larvae, tested at 1, 2, 5, 10 mM
[10] = Heliothis, 240 h, read-out: % Growth Inhibition
[11] = 192 h, 2.5 mM, 8 days, relative to untreated larvae, read-out: Percentage Growth Inhibition
[12] = 192 h, 5 mM, 8 days, relative to untreated larvae, read-out: Percentage Growth Inhibition
[13] = 192 h, 10 mM, 8 days, relative to untreated larvae, read-out: Percentage Growth Inhibition

Casein
Percentage Growth Inhibition ([1]; 10 mg/ml, 8 days): -5%
Percentage Growth Inhibition ([1]; 20 mg/ml, 8 days): 10%
Percentage Growth Inhibition ([1]; 40 mg/ml, 8 days): -2%

CC(C)CC(N)CS [L-leucinethiol, 2-amino-4-methyl-1-pentanethiol]
Effect on larval growth, summary in words [2]: effective growth inhibitors
inhibition at 1000 µM ([2]; Lucilia cuprina, Table 2.2, 1.00 mM): 21.4%
inhibition at 2000 µM ([2]; Lucilia cuprina, Table 2.2, 2.00 mM): 73.1%
inhibition at 2000 µM [2, 8]: 47%
Average Larval Weight ([2]; Table 2.2, 1.00 mM, control 10.26): 8.06 10^-4 g
Average Larval Weight ([2]; Table 2.2, 2.00 mM, control 10.26): 2.76 10^-4 g
% Growth Incubation ([2]; Table 2.3, 1.0 mM): 67.2%
Average Larval Weight ([2]; Table 2.3, 1.0 mM, control 9.08): 2.98 10^-4 g
% Growth Incubation ([2]; Table 2.3, 2.0 mM): 86.6%
Average Larval Weight ([2]; Table 2.3, 2.0 mM, control 9.08): 1.22 10^-4 g
Larval survival ([2]; first instar larvae, 5 mM): All killed

tosyl-L-phenylalanine chloromethyl ketone [TPCK]
Growth Inhibition [2, 9]: No inhibition detected

CCCC[C@@H](C=O)NC(=O)[C@H](CC(C)C)NC(=O)[C@H](CC(C)C)NC(C)=O [Calpain inhibitor I, N-Acetyl-Leu-Ley-norleucinal] (Ac-Leu-Leu-[Nle]-aldehyde)
Growth Inhibition ([2]; first instar larvae, 2 mM): 71%

CC(=O)N[C@@H](CC(C)C)C(=O)N[C@@H](CC(C)C)C(=O)N[C@H](C=O)CCCNC(=N)N [Leupeptin, Ac-Leu-Leu-Arginyl.1/2H2 SO4 H2 O]
Effect on larval growth, summary in words [2]: intermediate inhibition
inhibition at 2000 µM [2, 8]: 71%
inhibition at 10000 µM ([2]; Lucilia cuprina, first instar larvae, 10 mM): 80%
Percentage of Fleas Progressing Through to Pupation ([3]; 1.70 mg in 4.5 ml of blood): 0%
Percentage of Fleas Progressing Through to Pupation ([3]; 3.40 mg in 4.5 ml of blood): 0%
% Alive ([4]; 2.5 mM): 16.6%
Average Laval Weight ([4]; 2.5 mM): 16.6 mg
% Alive ([4]; 5.0 mM): 33.3%
Average Laval Weight ([4]; 5.0 mM): 17.0 mg
inhibition at 2500 µM [4, 10]: 90%
inhibition at 5000 µM [4, 10]: 89.7%

CC(C)C[C@@H](N)[C@H](O)C(=O)N[C@H](C(=O)N[C@H](C(=O)N[C@@H](CC(=O)O)C(=O)O)C(C)C)C(C)C [Amastatin, ((2S,3R)-3-amino-2-hydroxy-5-methyl-hexanoyl)-Val-Val-Asp-OH]
Effect on larval growth, summary in words [2]: effective growth inhibitors
inhibition at 2000 µM [2, 8]: 60%

CC(C)C[C@H](NC(=O)[C@H]1O[C@@H]1C(=O)O)C(=O)NCCCCN=C(N)N (relative stereo) [E64, L-trans-epoxy-succinyl-leucylamido-(4-guanidino-butane)]
Effect on larval growth, summary in words [2]: ineffective
Growth Inhibition ([2]; first instar larvae, tested at 1, 2, 5 mM): No inhibition detected
Plateau in mortality ([5]; 1000 μg/ml application level): 74-85%
Threshold level for larval growth reduction ([5]; fed on potato leaves): 50 µg/mL

Cl.NCCc1ccc(S(=O)(=O)F)cc1 [PEFABLOC, 4-(2-aminoethyl)-benzenesulfonylfluoride hydrochloride]
Mortality (class) ([6]; 2.5-10 mM): Medium (medium 21-40%)
Percentage Growth Inhibition ([1]; 2.5 mM, 8 days, relative to untreated larvae): 49%
Percentage Growth Inhibition ([1]; 5 mM, 8 days, relative to untreated larvae): 61%
Percentage Growth Inhibition ([1]; 10 mM, 8 days, relative to untreated larvae): 79%
Growth Inhibition ([2]; first instar larvae, 10 mM): 72%
Growth Inhibition ([2]; first instar larvae, 50 mM): 92%
Percentage of Fleas Progressing Through to Pupation ([3]; 1.10 mg in 4.5 ml of blood): 0%
Percentage of Fleas Progressing Through to Pupation ([3]; 2.20 mg in 4.5 ml of blood): 0%

CC(C)C[C@H](N)[C@](O)(Cc1c[nH]cn1)C(=O)O [Leuhistin, (2R,3S)-3-amino-2-hydroxy-2-(lII-imidazole-4-methyl)-5-methylhexanoic acid]
Effect on larval growth, summary in words [2]: effective growth inhibitors
Growth Inhibition ([2]; first instar larvae, 5 mM): 65%

CCOP(=S)(OCC)Oc1cc(C)nc(C(C)C)n1 [Diatinon]
LC50 ([7]; Hartley strain lice): 5.31 µg/mL (≈ 17.4 µM)
LC95 ([7]; Hartley strain lice): 19.7 µg/mL (≈ 64.7 µM)
Resistance Factor ([7]; Hartley strain, (Singapore)): 1.4

CC1(C)C(C=C(Cl)Cl)C1C(=O)OC(C#N)c1cccc(Oc2ccccc2)c1 (stereo not drawn) [Cypermethrin]
LC95 ([7]; Hartley strain lice): 475 µg/mL (≈ 1140 µM)

CC(C)CC(=O)N[C@H](C(=O)N[C@H](C(=O)N[C@@H](CC(C)C)[C@@H](O)CC(=O)N[C@@H](C)C(=O)N[C@@H](CC(C)C)[C@@H](O)CC(=O)O)C(C)C)C(C)C [Pepstatin] (Isovaleryl-VV[Sta]A[Sta]-OH)
Effect on larval growth, summary in words [2]: ineffectiveness
Growth Inhibition ([2]; first instar larvae, tested at 1, 2, 10 mM): No inhibition detected
Growth retardation ([5]; fed on potato leaves): only a small response

tosyl-L-lysine chloromethyl ketone [TLCK]
Effect on larval growth, summary in words [2]: killing the larvae
Larval survival ([2]; first instar larvae, 5 mM): All killed
Larval survival ([2]; first instar larvae, 10 mM): All killed

CC(C)[C@H](NC(=O)[C@H](CCCNC(=N)N)NC(=O)N[C@@H](Cc1ccccc1)C(=O)O)C(=O)N[C@H](C=O)CCCNC(=N)N [Antipain] ({Phe-CO}-Arg-Val-Arg-aldehyde)
Mortality (class) ([6]; 2.5-10 mM): None (none/low, 10-20% mortality)
inhibition at 2500 µM [1, 11]: -10%
inhibition at 5000 µM [1, 12]: -2%
inhibition at 10000 µM [1, 13]: -2%
inhibition at 2500 µM ([2]; Lucilia cuprina, first instar larvae, 2.5 mM, unit inferred): 45.5%
inhibition at 5000 µM ([2]; Lucilia cuprina, first instar larvae, 5 mM, unit inferred): 63.2%

CC(C)C[C@H](NC(=O)[C@@H](O)[C@H](N)Cc1ccccc1)C(=O)O [Bestatin]
inhibition at 1250 µM ([1]; 192 h, 1.25 mM, 8 days, relative to untreated larvae, read-out: Percentage Growth Inhibition): -5%
inhibition at 2500 µM [1, 11]: 2%
inhibition at 5000 µM [1, 12]: -4%
Growth inhibition, summary in words ([1]; text summary of Table 9.1): ineffective
Effect on larval growth, summary in words [2]: effective growth inhibitors
inhibition at 5000 µM ([2]; Lucilia cuprina, first instar larvae, 5 mM): 63%

O=BOB(O)OB(O)OB=O [Borax]
Mortality ([6]; 5-20 mM): 93%
Mortality (class) ([6]; 5-20 mM): High (high 41-100%)
inhibition at 5000 µM [1, 12]: -5%
inhibition at 10000 µM [1, 13]: 39%
inhibition at 20000 µM ([1]; 192 h, 20 mM, 8 days, relative to untreated larvae, read-out: Percentage Growth Inhibition): 68%

CC[C@H](C)[C@H](N)C(=O)N1CCC[C@H]1C(=O)N[C@H](C(=O)O)[C@@H](C)CC [Diprotin, H-Ile-Pro-Ile-OH]
Effect on larval growth, summary in words [2]: ineffective
Growth Inhibition [2, 9]: No inhibition detected
